Assay results: a melting point compilation (Tetko et al.; mined from patent text by program, amines drawn as free bases though some values may be those of a salt)

Structure (SMILES) | melting point
COc1cc2cc(C(=O)OC(C)(C)C)c(N)cc2cc1OCc1ccccc1 | 179 to 180 °C
CN(C)c1ccc([PH](=O)c2ccc(N(C)C)cc2)cc1 | 152 °C
CC(=O)Nc1ccc2c(c1)C(=O)C(=O)N2CCN(C(C)C)C(C)C | 187 to 190 °C
O=C(C(=NO)c1ccc(F)cc1)c1ccnc(F)c1 | 166 °C
CC(C)n1cnc2c(NCc3ccncc3)nc(F)nc21 | 170 to 173 °C
CCOc1cc(OCCCc2cn(-c3cc(C(F)(F)F)ccn3)nc2OCC)ccc1CCC(=O)O | 119 to 120 °C
Clc1ccc(C2=NNC(c3cccnc3)S2)cc1 (centres undefined) | 106 to 108 °C
Nc1nc(-c2cc(Cl)ccc2Cl)nc(N2CCS(=O)CC2)n1 | 267 to 269 °C
COc1ccc2c(-c3ccccc3)c(C(=O)c3ccccc3OC)sc2c1 | 111 to 112 °C
O=c1c(CO)coc2cc(OCCCN3CCC(c4noc5cc(F)ccc45)CC3)ccc12 | 200 to 202 °C
OC1CC(c2ccccc2)C(c2ccccc2)(c2ccc(OCCN3CCOCC3)cc2)O1 (centres undefined) | 150 to 153 °C
O=C1CCC(c2ccc3[nH]c(-c4ccccc4Cl)cc3c2)=NN1 | 236 to 239 °C
CS(=O)(=O)c1ccc(Oc2cc(OC3CCOCC3)c3[nH]c(C4=NCC(CC(N)=O)S4)cc3c2)cn1 (centres undefined) | 136 to 138 °C
O=C(O)C1CC(=O)N(Cc2ccccc2)C1c1c(Cl)cccc1Cl (centres undefined) | 179 to 181 °C
CCOC(=O)C(C)Oc1ccc2cc(Oc3c(Cl)cc(C(F)(F)F)cc3Cl)ccc2c1 (centres undefined) | 118 to 120 °C
Nc1nc(NCc2ccccc2)c2ncn(C3C=CC(CO)C3)c2n1 (centres undefined) | 174 to 176 °C
N#Cc1cc(N)ccc1Sc1ccccc1 | 73 to 75 °C
COC(=O)C1=CC[C@H]2[C@@](C=O)(CCC3C(C)(C)CCC[C@@]32C)C(=O)C1 (some centres undefined) | 86 to 88 °C
CC(C)Oc1nccc(-c2c(-c3ccc(F)cc3)ncn2C2CCC(O)CC2)n1 (centres undefined) | 208 to 211 °C
CC1=C(C(=O)OC(C)C)C(c2cccc(Cl)c2)NC(=O)N1C(=O)NC(C)c1ccccc1 (centres undefined) | 198 to 200 °C
CCn1nnn(CCN2CCC(=C3c4sccc4CCn4ccnc43)CC2)c1=O | 175 °C
Cc1nc2c(OCc3ccccc3Cl)nccc2n1C | 180 to 181 °C
CCOC(=N)C(O)c1sccc1C (centres undefined) | 73 to 76 °C
O=C(CC(=O)c1ccccc1)Nc1ccccc1NC(=O)CC(=O)c1ccccc1 | 202 to 204 °C
CCCCC[C@H]1CC[C@H](c2ncc([C@H]3CC[C@H](CCC)CC3)cn2)CC1 | 98 °C

Structure (SMILES) | melting point
Cn1c(C(F)(F)F)ccc(-c2cc3c(cc2F)OCC(=O)N3)c1=O | 216 to 218 °C
Cc1cc(C)n(-c2ccc(C(N)=O)nn2)n1 | 256 to 257 °C
CSc1ncc(Oc2cccnc2)c(=O)[nH]1 | 205 to 208 °C
NS(=O)(=O)c1ccccc1OC(F)(F)C(F)F | 117 to 119 °C
Cc1occc1C(=O)Nc1ccc(C(=O)N2Cc3ccccc3Cc3ccccc32)cc1 | 202 to 204 °C
O=C(Nc1cccc2c(=O)cc(-c3nnn[nH]3)oc12)c1ccc2c(c1)CC(CCCc1ccccc1)O2 (centres undefined) | 234 to 235 °C
O=C(c1ccccc1)c1cnn2c1NCCC2 | 173 to 174 °C
C=CCS(=O)(=O)c1ccc(NC(C)=O)cc1 | 116 to 118 °C
CCOC(=O)CCNC(=O)N1CCn2c(c(C(N)=O)c(Cl)c2-c2ccccc2)C1 | 50 to 60 °C
CCOc1cc2ncc(C#N)c(Nc3cccc(Cl)c3)c2cc1OCC | 188 to 190 °C
CSc1ncnc2c(C3OC(CO)C(O)C3O)csc12 (centres undefined) | 226 to 228 °C
Cc1c(N(C)C)n2c(cc1=O)CCCC2 | > 240 °C
N#CCc1cc(Cl)ncc1[N+](=O)[O-] | 87 to 89 °C
COC(=O)c1cc(Oc2c(Cl)cc(Cl)cc2Cl)ccc1[N+](=O)[O-] | 101 to 103 °C
COC(=O)c1c(Cl)c(Cl)c(Cl)c(Cl)c1C#N | 82 to 83 °C
Cc1cc(C)c2cccc(C(=O)Nc3nnn[nH]3)c2n1 | 300 to 305 °C
COc1ccc(Cn2cnc3c2CC(C(=O)O)N(C(=O)C(c2ccccc2)c2ccccc2)C3)cc1C (centres undefined) | 222 to 225 °C
N#Cc1ccc(Sc2cc(Cl)ccc2Cl)c(S(=O)(=O)N2CCNCC2)c1 | 156 to 162 °C
CN1CCN(c2cccc3ccc(Nc4ccccc4[N+](=O)[O-])cc23)CC1 | 87 to 94 °C
Cc1cc2nc(Cl)cc(NCc3c(C)cccc3C)c2[nH]1 | 310 to 312 °C
COc1c(C)cc(C(=O)O)cc1-c1ccccc1 | 165 to 168 °C
CNc1nc2c(OCc3ccccc3)cccc2n1C | 213 °C
Cc1cc(-c2cc(C(F)(F)F)n3nccc3n2)ccc1Cl | 114 °C
CS(=O)(=O)CS(C)(=O)=O | 146 °C
CCS(=O)(=O)NC(C(=O)NCCc1ccc(OC)c(OC)c1)c1ccc(Cl)cc1 (centres undefined) | 136 to 138 °C

Structure (SMILES) | melting point
Cn1nnnc1-c1cn(C)c2cc(F)ccc2c1=O | 264 to 267 °C
CC(COc1ccc(CC2SC(=O)NC2=O)cc1)NCC(O)Cc1ccccc1 (centres undefined) | 145 to 152 °C
COC(=O)c1ccc(-c2nc(C(N)=O)c3[nH]c(=O)n(-c4ccccc4OC)c3n2)cc1 | 286 to 290 °C
COc1cc2sc(/C=C(\Oc3ccc(C(C)C)cc3)C(=O)O)cc2c(Cl)c1OC | 255 to 256 °C
O=c1c2c(Br)cc(Br)cc2n(Cc2ccccc2)c(=O)n1Cc1ccccc1Cl | 202 to 205 °C
O=C(Nc1ccc(Cl)c(C(F)(F)F)c1)Nc1ccc2ncsc2c1 | 225 to 228 °C
FC(F)(F)c1ccc(-c2cc3[nH]ccn3n2)cc1 | 134 to 135 °C
CN(Cc1ccccc1)[C@H](Cc1c[nH]c2ccccc12)c1nc(-c2ccccc2)c[nH]1 | 110 to 112 °C
CC(=O)C(=[N+]=[N-])C(=O)CCCCCCCCCc1ccccc1 | 29 to 31 °C
CS(=O)(=O)c1ccc(-c2cc(CCO)sc2-c2ccc(F)cc2)cc1 | 102 to 108 °C
COc1ccc(S(N)(=O)=O)cc1N=Nc1c(O)c(O)c(N=Nc2cc(S(N)(=O)=O)ccc2OC)c2ccccc12 | 345 °C
CCOC(=O)c1cnc2ccc(CC)nc2c1Cl | 94 to 96 °C
CCCC(=O)Nc1cc(Oc2ccccc2)ccc1NC(=NC(=O)OCC)SC | 118 °C
CCCc1nc(N)nc(N)c1N1CCN(c2ccc(C(=O)N[C@@H](CCC(=O)OCC)C(=O)OCC)cc2)CC1 | 175 to 180 °C
CCOC(=O)C1(C(=O)OCC)C(C(C)=O)C(=O)N1Cc1ccc(OC)cc1OC (centres undefined) | 84 to 85 °C
Cn1cc(-c2cccc(C(F)(F)F)c2)c(=O)c(-c2ccccc2C(F)(F)F)c1 | 135 to 138 °C
CC(O)CCc1cc(C(C)(C)C)c(O)c(C(C)(C)C)c1 (centres undefined) | 62 to 67 °C
NCC1CCN(CC(=O)Nc2cccc3c2C(=O)c2c-3n[nH]c2-c2ccc(N3CCNCC3)cc2)CC1 | 239 °C
CC1(C)Oc2ccc(S(=O)(=O)c3ccc(C#N)cc3)cc2C(O)C1Br (centres undefined) | 157 to 158 °C
Cn1cc(-c2nc(C(F)(F)F)c[nH]2)cn1 | 206 to 207 °C
O=C(CCOCCOCCC(=O)Oc1cc(O)cc(O)c1)Oc1cc(O)cc(O)c1 | 166 to 168 °C
N#CCCNC(=O)c1cccc(-c2ccc3c(c2)C(Nc2ccc(Cl)cc2Cl)CO3)c1 (centres undefined) | 165 to 166 °C
c1ccc(OCCSCc2ncc(-c3ccc(OCCCN4CCCCCC4)cc3)o2)cc1 | 32 to 35 °C
c1ccc(COc2ccc3c(ccn3Nc3ccncc3)c2)cc1 | 143 to 145 °C
O=C(O)c1nc(-c2ccc(Cl)cc2Cl)[nH]c1C(=O)O | 238 °C

Structure (SMILES) | melting point
CCCCCCCCCCCCSc1ccc2c(c1)C(=O)c1c(c(Oc3ccccc3)c3ccccc3c1Oc1ccccc1)C2=O | 165 to 168 °C
O=C(/C=C/c1ccc2c(c1)OCCO2)CC(=O)/C=C/c1ccc2c(c1)OCCO2 | 184 to 187 °C
N#CC(Cl)=C(Cl)SC(Cl)=C(Cl)C#N | 87 °C
Cc1cccc(NC(=O)NCC(=O)N(CC(=O)N(c2ccccc2)C(C)C)c2ccccc2)c1 | 170 °C
O=c1[nH]c2cc(Cl)ccc2c(O)c1-c1ccc(F)cc1 | 335 to 337 °C
O=C(O)c1ccc(Cl)cc1Oc1cccc(C(F)(F)F)c1 | 146 °C
Cc1cc(=O)oc2c(C)c3c(cc12)CCCO3 | 162 to 163 °C
CCOc1ccc(C[C@@H](NC(=O)[C@H]2CC[C@H](C(C)C)CC2)C(=O)O)cc1 | 149 to 151 °C
O=C1Cn2ncnc2-c2sccc2N1 | 213 to 215 °C
Cc1ccc2c(c1)O[C@@H](CN1CCC(CNC(=O)c3cccnc3N)CC1)CO2 | 143 to 146 °C
CC(=O)CCCCC(=O)Nc1ccc(CC(NC(C)=O)C(=O)NCC(=O)OCc2ccccc2)cc1 (centres undefined) | 178 to 180 °C
CCOC(=O)c1nn(-c2ccc(Cl)cc2)c2c1CCC2 | 122 to 123 °C
CCC(=O)Oc1ccc(NC(=O)OC(C)(C)C)cc1C(=O)O | 137 to 142 °C
Cc1nc(O)c([N+](=O)[O-])c(Cl)n1 | 194 to 196 °C
CONC(=O)c1cc(C)c(C(c2cc(F)ccc2F)S(=O)(=O)c2ccc(F)cc2)cn1 (centres undefined) | 231 to 234 °C
Cn1cc(C#N)c(-c2ccco2)n1 | 104 to 106 °C
c1ccc(Cn2cc(-c3ncc(-c4ccc5cc(OCc6nnn[nH]6)ccc5c4)o3)c3ccccc32)cc1 | 244 to 246 °C
Cc1n[nH]c2ccc(C3C(C#N)=C(C(F)F)NC(C(F)F)=C3C#N)cc12 | 289 °C
C=CC[C@H](C(N)=O)[C@@H](CC(C)C)C(=O)NC1N=C(c2ccccc2)c2cc(OC)ccc2N(C)C1=O (some centres undefined) | 244 to 255 °C
CC(C)n1nc(-c2sc(NC(=O)CN(C)CCc3ccccn3)nc2-c2ccccc2)ccc1=O | 94 to 96 °C
O=C(Cn1nc(-c2cc(Cl)ccc2O)nc1-c1cc(Cl)ccc1O)NCCN1CCOCC1 | 224 to 226 °C
CN1CCOc2cc(S(=O)(=O)n3c(COC(C)(C)C(=O)O)cc4nc(Cl)ccc43)ccc21 | 229 °C
CCCc1c(OCCCOc2cc(N)c(Cl)cc2C)ccc(C(C)=O)c1O | 81 °C
CCOC(=O)NC1(c2ccccc2Cl)CCCCC1=O (centres undefined) | 112 to 114 °C
